From patent publication US11725006B2, “Hydrophilic berberine-type derivative and application thereof in preparing drug” (INSTITUTE OF MATERIA MEDICA, CHINESE ACADEMY OF MEDICAL …, priority 2018, dated 2023)
Where “and” joins values, the source holds several entries; their conditions need not be identical. Identical values can stand only once. Counter-ions that a name gives are not always drawn. Like-named read-outs stand apart in the source and are kept apart here. Marks after values point to notes of the source that are not given here. One block for each compound: values may come before it.

Assays:
[1] = tested on: colorectal cancer model mice induced by AOM/DSS; experiment: Colorectal cancer model mice induced by AOM/DSS; type: in vivo, C57b1/6j mice; details: 250 mg/kg by gavage, two weeks on, one week off, 12 weeks
[2] = Alcohol-solubility examination in 95% ethanol under refluxing; type: physicochemical; details: per gram of compound, within 30 minutes
Description: The compounds of the invention were weighed and placed into different amount of 95% ethanol solvent under refluxing, respectively. The dissolution status within 30 minutes was observed. If there were no visible solute particle, it would be regarded as complete dissolution.

[3] = Hydrosolubility examination in pure water; type: physicochemical; details: per milliliter of purified water, 25° C.±2° C., visual, within 30 minutes
Description: The compounds of the invention were weighed and placed into a certain amount of pure water solvent under 25° C.±2° C., respectively. […] If there were no visible solute particle, it would be regarded as complete dissolution.

[4] = tested on: C57b1/6j mice model of ulcerative colitis induced by DSS; experiment: Acute ulcerative colitis model induced by dextran sodium sulfate (DSS); type: in vivo; details: for Percentage of colon contracture: compared to colon length in normal control group; for body weight loss percentage: compared with body weight at the beginning of the experiment; for Body weight change rate: end versus start
Description: (1) Animals: C57b1/6j mice, male (20-22 g); seven mice in each group.
(3) Dosage and times of administration: The positive drug was 500 mg/kg, both dihydrocoptisine and the compounds of the invention were 100 mg/kg, once a day for eight days.
(4) Experimental methods: The method of this experiment was a literature method: see Zhi-Hui Zhang, Hai-Jing Zhang, An-Jun Deng, Bo Wang, Zhi-Hong Li,
Yang Liu, Lian-Qiu Wu, Wen-Jie Wang, and Hai-Lin Qin. Synthesis and Structure-activity Relationships of Quaternary Coptisine Derivatives as Potential Anti-ulcerative Colitis Agents. Journal of Medicinal Chemistry. 2015, 58, 7557-7571.
The effect of the compounds of the invention on the disease activity index (DAI) and the inhibition rate of DAI in the C57b1/6j mice model of ulcerative colitis induced by DSS was investigated. […] In Table 5, **, P<0.01, compared with the normal control group; ^#, P<0.05 and ^##, P<0.01, compared with the model group.

[5] = tested on: acute ear swelling model of mice caused by croton oil; experiment: Acute ear swelling model of mice caused by croton oil; type: in vivo, Balb/c mice; details: 5 mg/kg by gavage
[6] = tested on: Escherichia coli; experiment: MIC by twofold microdilution broth method; type: cell-based; details: 24 h, read-out: MIC E. coli
Description: (§1) (1) Strains: Staphylococcus aureus, Escherichia colt, Candida albicans MCC (F) 98001.
(§2) (2) Experimental method: the anti-bacterial activity of the compounds of the invention was evaluated by determining the minimum inhibitory concentration (MIC) using the twofold microdilution broth method. The compounds of the invention and the reference substances (quaternary ammonium salt substrates of berberine-type alkaloids and levofloxacin) were prepared into a 20000 μg/ml stock solution with DMSO for use. S. aureus and E. coli were diluted using MHB (Mueller Hinton Broth) medium, and C. albicans using Sabouraud medium, all prepared into 10^6 CFU (colony forming unit) concentration as bacterial suspensions for use. The determination steps of MIC are as follows. First, 180 μl of MHB medium (for S. aureus and E. coli) or Sabouraud Medium (for C. albicans) was transferred to the first well in each row of the sterile 96 well plate, and 100 μl to the second to the 11th wells of each row, and 200 μl to the 12th well as negative blank control well. 20 μl sample stock solution was taken and added to the first well. After mixed up, 100 μl was taken from the first well and transferred to the second well. The same as mentioned above, the second well was mixed up, 100 μl of mixed content was taken from the second well and added to the third well, as described above. As such, the same operation was continued till the 10th well, and finally 100 μl of content was drawn from the 10th well and discarded. The bacterial suspension of 100 μl was added to each of the aforementioned from first to eleven wells and mixed up. Three parallel groups for each sample were set up. The 96 well plates were put into the incubator to culture for 24 h. […] The MIC values of each sample to be tested as well as those of the references were observed and recorded with the naked eyes.

[7] = tested on: Candida albicans MCC (F) 98001; experiment: MIC by twofold microdilution broth method; type: cell-based; details: 24 h; for MIC: Candida albicans, read-out: MIC C. albicans
Description: as §1, §2

[8] = tested on: Staphylococcus aureus; experiment: MIC by twofold microdilution broth method; type: cell-based; details: 24 h; for MIC: Staphylococcus aureus, read-out: MIC S. aureus
Description: as §1, §2

[9] = 100 mg/kg, listed as dihydrocoptisine
[10] = Sabouraud medium, 25° C., stock solution 20000 μg/ml

SMILES: CCCCCOC(=O)Nc1nc(=O)n([C@@H]2O[C@H](C)[C@@H](O)[C@H]2O)cc1F [Capecitabine]
- Spleen weight [1]: 0.228 ± 0.029 g
- Tumor burden (relatively calculated value) [1]: 42.69 ± 10.26 piece
- Spleen weight ([1]; listed as capecitabine): 0.228 ± 0.029 g
- Tumor burden (relatively calculated value) ([1]; listed as capecitabine): 42.69±10.26 piece

SMILES: ClC(Cl)c1c2c3c(ccc2cc2[n+]1CCc1cc4c(cc1-2)OCO4)OCO3.O=C([O-])/C=C\C(=O)O [Compound 25, 8-dichloromethyl coptisine hydrogen maleate]
- amount of 95% ethanol solvent required for dissolving each gram [2]: 23 mL

SMILES: COc1ccc2cc3[n+](c(C(Cl)Cl)c2c1OC)CCc1cc2c(cc1-3)OCO2.O=C([O-])/C=C\C(=O)O [Compound 27, 8-dichloromethyl berberine hydrogen maleate]
- amount dissolved in each milliliter of water [3]: 3.83 mg
- amount of 95% ethanol solvent required for dissolving each gram [2]: 5.8 mL

SMILES: Cc1ccc(S(=O)(=O)[O-])cc1.ClC(Cl)c1c2c3c(ccc2cc2[n+]1CCc1cc4c(cc1-2)OCO4)OCO3 [Compound 29, 8-dichloromethyl coptisine tosylate]
- amount of 95% ethanol solvent required for dissolving each gram [2]: 24 mL

SMILES: COc1ccc2cc3[n+](c(C(Cl)Cl)c2c1OC)CCc1cc2c(cc1-3)OCO2.Cc1ccc(S(=O)(=O)[O-])cc1 [Compound 31, 8-dichloromethyl berberine tosylate]
- amount dissolved in each milliliter of water [3]: 5.0 mg
- amount of 95% ethanol solvent required for dissolving each gram [2]: 7 mL

- amount dissolved in each milliliter of water [3]: 6.45 mg
- amount of 95% ethanol solvent required for dissolving each gram [2]: 7 mL
SMILES: COc1ccc2cc3[n+](c(C(Cl)Cl)c2c1OC)CCc1cc2c(cc1-3)OCO2.O=S(=O)([O-])c1ccccc1 [Compound 47, 8-dichloromethyl berberine benzenesulfonate]

SMILES: C1=C2c3cc4c(cc3CCN2Cc2c1ccc1c2OCO1)OCO4 [Dihydrocoptisine, dihydrocoptisine]
- Colon length ([4]; 100 mg/kg): 6.23 ± 0.14^## cm
- DAI ([4]; 100 mg/kg): 2.24 ± 0.97^##
- DAI inhibition rate ([4]; 100 mg/kg): 44.03^## %
- Body weight (g) X ± SD End ([4]; 100 mg/kg once a day for eight days): 18.43 ± 2.01 g
- Percentage of colon contracture ([4]; 100 mg/kg): 23.93^## %
- Percentage of colon contracture [4, 9]: 23.93%
- body weight loss percentage ([4]; 100 mg/kg): 18.77%
- Body weight change rate ([4]; 100 mg/kg): −18.77^# %
- Colon length [4, 9]: 6.23 cm
- DAI inhibition rate [4, 9]: 44.03%

SMILES: COc1ccc2c(c1)c(CC(=O)O)c(C)n2C(=O)c1ccc(Cl)cc1 [Indomethacin]
- Inhibition rate (ear swelling) [5]: 26.01^# %
- Degree of swelling ([5]; 4 hours after croton oil): 70.26 ± 20.97 mg
- Inhibition rate (ear swelling) ([5]; listed as indomethacin): 26.01%

- MIC ([6]; MHB medium, 37° C.): < 1.95 µg/mL
- MIC [7, 10]: > 250 µg/mL
- MIC C. albicans [7, 10]: more than 250 ug/mL
- MIC ([8]; MHB medium, 37° C.): < 1.95 µg/mL
SMILES: C[C@H]1COc2c(N3CCN(C)CC3)c(F)cc3c(=O)c(C(=O)O)cn1c23 [Levofloxacin]

SMILES: O=C(O)c1cc(/N=N/c2ccc(S(=O)(=O)Nc3ccccn3)cc2)ccc1O [SASP, salazosulfapyridine]
- Colon length ([4]; 500 mg/kg): 5.90 cm and 5.90 ± 0.30^# cm
- DAI ([4]; 500 mg/kg): 3.07 ± 1.01^#
- DAI inhibition rate ([4]; 500 mg/kg): 23.33%
- Body weight (g) X ± SD End ([4]; 500 mg/kg once a day for eight days): 15.86 ± 1.58 g
- Percentage of colon contracture ([4]; 500 mg/kg): 28.43%
- body weight loss percentage ([4]; 500 mg/kg): 27.70%
- Body weight change rate ([4]; 500 mg/kg): −27.70%

- amount dissolved in each milliliter of water [3]: < 2 mg
- MIC ([6]; MHB medium, 37° C.): 250 µg/mL
- MIC [7, 10]: 250 µg/mL
- MIC C. albicans [7, 10]: 250 µg/mL
- MIC S. aureus ([8]; MHB medium, 37° C.): 125 µg/mL
- MIC ([8]; MHB medium, 37° C.): 125 µg/mL
SMILES: COc1ccc2cc3[n+](cc2c1OC)CCc1cc2c(cc1-3)OCO2 [berberine hydrochloride]

SMILES: c1c2c(cc3c1OCO3)-c1cc3ccc4c(c3c[n+]1CC2)OCO4 [coptisine hydrochloride]
- amount dissolved in each milliliter of water [3]: less than 1 mg
- MIC [6]: > 250 µg/mL
- MIC [7]: 250 µg/mL
- MIC C. albicans [7, 10]: 250 µg/mL
- MIC S. aureus ([8]; MHB medium, 37° C.): more than 250 ug/mL
- MIC [8]: > 250 µg/mL
